According to patent US20120323164A1, “PHOTODYNAMIC THERAPY WITH PHTHALOCYANINES AND RADICAL SOURCES” (Case Western Reserve University, priority 2011, published 2012):
Several values for one entry are separate records, joined by “and”; a condition that tells them apart may be missing. Identical values can stand only once.

What was measured:
[1] = Photodecomposition of Al and Si phthalocyanines in toluene in the presence of squalene under white light; assay type: physicochemical; conditions: toluene ~9 μM, squalene 1:1000 mole ratio, white light 1.2 kJ/s/m^2, air
Experimental: The beam intensity was checked before each measurement.
Solutions for the photodecomposition experiments were prepared as follows.

[2] = Photodecomposition of phthalocyanines in toluene under white light, no added radical source; conditions: for photostability (in words): white light, toluene
Experimental: The distance between the cuvette face and the lamp filament was 30 cm. Determination of the beam intensity at the cuvette face was made with a powermeter (Powermax, pm10, Coherent, Santa Clara, Calif.). The beam intensity was checked before each measurement.
Solutions for the photodecomposition experiments were prepared as follows. […] This assumption was justified on the basis that all of the silicon phthalocyanines studied contained simple, unsubstituted phthalocyanine rings. The extinction coefficients of the aluminum phthalocyanines were assumed to be 2.3×10^5, the extinction coefficient of AlPcOSi(CH3)2(CH2)3N(CH3)2, Pc 1.
The absorbance of the Q band of the solution, A, was determined with a spectrophotometer (Lambda 25, Perkin Elmer, Shelton, Conn.; fused silica cuvettes, 1.00 cm, 3.5 mL, Fisher Scientific). From A, ε, the cuvette path length, b, and Beer's law, the concentration of the solution, c, was determined. The solution was then diluted with toluene to a concentration of 9.2 μM. To verify that this was the concentration of the solution, its absorbance was measured again.
In a typical determination, the solution (3.00 mL) was placed in a cuvette (1.00 cm, 3.5 mL, Fisher Scientific, Pittsburgh, Pa.) and its absorbance was measured with the spectrometer (Lambda 25) before irradiation and at 2, 4, 6 and 8 h.
where A0 is the absorbance of the solution at time 0, and At is the absorbance at time t.

[3] = time 2 h, radiation 86 kJ/mol × 10^−6
[4] = time 4 h, radiation 172 kJ/mol × 10^−6
[5] = time 6 h, radiation 258 kJ/mol × 10^−6
[6] = time 8 h, radiation 344 kJ/mol × 10^−6
[7] = time 0 h, toluene ~9 μM, no added alkene, white light 1.2 kJ/s/m^2
[8] = time 2 h, radiation 86 kJ/mol × 10^−6, toluene ~9 μM, no added alkene, white light 1.2 kJ/s/m^2
[9] = time 4 h, radiation 172 kJ/mol × 10^−6, toluene ~9 μM, no added alkene, white light 1.2 kJ/s/m^2
[10] = time 6 h, radiation 258 kJ/mol × 10^−6, toluene ~9 μM, no added alkene, white light 1.2 kJ/s/m^2
[11] = time 8 h, radiation 344 kJ/mol × 10^−6, toluene ~9 μM, no added alkene, white light 1.2 kJ/s/m^2

| Molecule | decomp (%) ([1]; time 0 h) | decomp (%) [1, 3] | decomp (%) [1, 4] | decomp (%) [1, 5] | decomp (%) [1, 6] | decomp (%) [2, 7] | decomp (%) [2, 8] | decomp (%) [2, 9] | decomp (%) [2, 10] | decomp (%) [2, 11] | decomp (%) [2] | decomposition rate relative to bis(α-linolenoxy)silicon phthalocyanine [2] | stability in the dark ([2]; in the dark) | photostability (in words) ([2]; no added alkene) |
| --- | --- | --- | --- | --- | --- | --- | --- | --- | --- | --- | --- | --- | --- | --- |
| CCCCCC[Si](CCCCCC)(CCCCCC)[O][Al]1[n]2c3c4ccccc4c2N=c2c4ccccc4c([n]21)=NC1=NC(=NC2=NC(=N3)c3ccccc32)c2ccccc21 [Pc 286, AlPcOSiHx3] | 0% | 10% | 17% | 23% | 29% | – | – | – | – | – | – | – | – | – |
| COCCC[Si](C)(C)O[Si]1(O[Si](C)(C)CCCOC)n2c3c4ccccc4c2N=C2N=C(N=c4c5ccccc5c(n41)=NC1=NC(=N3)c3ccccc31)c1ccccc12 [Pc 92, SiPc[OSi(CH3)2(CH2)3OCH3]2] | – | – | – | – | – | 0% | 1% | 1% | 1% | 1% | – | – | – | – |
| SiPc[OC(O)(CH2)3(CH2CH═CH)3(CH2)4CH3]2 [Pc 298] | – | – | – | – | – | – | – | – | – | – | 0 12 21 27 33% | approximately twice as fast | – | – |
| C[Si](C)(C)O[Si]1(O[Si](C)(C)C)n2c3c4ccccc4c2N=C2N=C(N=c4c5ccccc5c(n41)=NC1=NC(=N3)c3ccccc31)c1ccccc12 [Pc 280, SiPc(OSiMe3)2] | 0% | 11% | 19% | 27% | 36% | – | – | – | – | – | – | – | – | – |
| SiPc[OCH2CH═C(CH3)(CH2)2CH═C(CH3)2]2 [Pc 302] | – | – | – | – | – | 0% | 19% | 60% | 74% | 81% | – | – | stable in the dark | – |
| SiPc[OC(O)(CH2)6(CH2CH═CH)3CH2CH3]z [Pc 297] | – | – | – | – | – | – | – | – | – | – | 0 3 5 6 9% | – | – | – |
| CCC[Si](CCC)(CCC)[O][Al]1[n]2c3c4ccccc4c2N=C2N=C(N=c4c5ccccc5c([n]41)=NC1=NC(=N3)c3ccccc31)c1ccccc12 [Pc 285, AlPcOSiPr3] | 0% | 8% | 16% | 23% | 30% | – | – | – | – | – | – | – | – | – |
| CC1=C(/C=C/C(C)=C/C=C/C(C)=C/C(=O)O[Si]2(OC(=O)/C=C(C)/C=C/C=C(C)/C=C/C3=C(C)CCCC3(C)C)n3c4c5ccccc5c3N=C3N=C(N=c5c6ccccc6c(n52)=NC2=NC(=N4)c4ccccc42)c2ccccc23)C(C)(C)CCC1 (stereo not drawn) [Pc 301, SiPc[OC(O)(CH═C(CH3)CH═CH)2C6H6(CH3)3]2] | – | – | – | – | – | 0% | 19% | 25% | 28% | 32% | – | – | – | – |
| CCCCCC[Si](CCCCCC)(CCCCCC)O[Si]1(O)n2c3c4ccccc4c2N=C2N=C(N=c4c5ccccc5c(n41)=NC1=NC(=N3)c3ccccc31)c1ccccc12 (stereo not drawn) [Pc 252, SiPc(OSiHx3)(OH)] | 0% | 16% | 26% | 34% | 42% | – | – | – | – | – | – | – | – | – |
| C[Si](C)(CCCN(c1ccccc1)c1ccccc1)O[Si]1(O[Si](C)(C)CCCN(c2ccccc2)c2ccccc2)n2c3c4ccccc4c2N=C2N=C(N=c4c5ccccc5c(n41)=NC1=NC(=N3)c3ccccc31)c1ccccc12 [Pc 159, SiPc[OSi(CH3)2(CH2)3N(C6H5)2]2] | – | – | – | – | – | 0% | 0% | 0% | 0% | 1% | – | – | – | quite stable under light |
| CN(C)CCCCCC[Si](C)(C)O[Si]1(O[Si](C)(C)CCCCCCN(C)C)n2c3c4ccccc4c2N=C2N=C(N=c4c5ccccc5c(n41)=NC1=NC(=N3)c3ccccc31)c1ccccc12 [Pc 85, SiPc[OSi(CH3)2(CH2)6N(CH3)2]2] | – | – | – | – | – | 0% | 5% | 5% | 5% | 5% | – | – | – | – |
| CCC[Si](CCC)(CCC)O[Si]1(O[Si](CCC)(CCC)CCC)n2c3c4ccccc4c2N=C2N=C(N=c4c5ccccc5c(n41)=NC1=NC(=N3)c3ccccc31)c1ccccc12 [Pc 282, SiPc(OSiPr3)2] | 0% | 3% | 4% | 6% | 7% | – | – | – | – | – | – | – | – | – |
| CN(C)CCC[Si](C)(C)O[Si]1(O)n2c3c4ccccc4c2N=C2N=C(N=c4c5ccccc5c(n41)=NC1=NC(=N3)c3ccccc31)c1ccccc12 (stereo not drawn) [Pc 4, HOSiPcOSi(CH3)2(CH2)3N(CH3)2] | 0% | 57% | 81% | 92% | 96% | 0% | 11% | 12% | 12% | 13% | – | – | – | – |
| CCCCCCCC[Si](CCCCCCCC)(CCCCCCCC)O[Si]1(O[Si](CCCCCCCC)(CCCCCCCC)CCCCCCCC)n2c3c4ccccc4c2N=C2N=C(N=c4c5ccccc5c(n41)=NC1=NC(=N3)c3ccccc31)c1ccccc12 [Pc 308, SiPc(OSiOct3)2] | 0% | 10% | 15% | 21% | 26% | – | – | – | – | – | – | – | – | – |
| SiPc[OC(O)(CH2)16CH3]2 [Pc 294] | – | – | – | – | – | 0% | 1% | 1% | 1% | 2% | – | – | – | – |
| CCCCCCCCCCCCCCCCCC(=O)O.CCCCCCCCCCCCCCCCCC(=O)O.CN(C)CCC[Si](C)(C)O[Si]1(O[Si](C)(C)CCCN(C)C)n2c3c4ccccc4c2N=C2N=C(N=c4c5ccccc5c(n41)=NC1=NC(=N3)c3ccccc31)c1ccccc12 [Pc 287, SiPc[OSi(CH3)2(CH2)3NH(CH3)2]2^2+[OC(O)(CH2)17CH3]2^−] | – | – | – | – | – | 0% | 19% | 20% | 21% | 21% | – | – | – | – |
| C[Si](C)(CCCI)O[Si]1(O)n2c3c4ccccc4c2N=C2N=C(N=c4c5ccccc5c(n41)=NC1=NC(=N3)c3ccccc31)c1ccccc12 (stereo not drawn) [Pc 58, SiPc[OSiMe2(CH2)3I](OH)] | 0% | 12% | 23% | 34% | 44% | – | – | – | – | – | – | – | – | – |
| C[SiH2]O[Si]1(O[SiH2]C)n2c3c4ccccc4c2N=C2N=C(N=c4c5ccccc5c(n41)=NC1=NC(=N3)c3ccccc31)c1ccccc12 (stereo not drawn) [Pc 283, SiPc(OSiH2Me)2] | 0% | 24% | 44% | 63% | 77% | – | – | – | – | – | – | – | – | – |
| CSCCC[Si](C)(C)O[Si]1(O[Si](C)(C)CCCSC)n2c3c4ccccc4c2N=C2N=C(N=c4c5ccccc5c(n41)=NC1=NC(=N3)c3ccccc31)c1ccccc12 [Pc 97, SiPc[OSi(CH3)2(CH2)3SCH3]2] | – | – | – | – | – | 0% | 41% | 42% | 43% | 44% | – | – | – | – |
| AlPcOSi(CH3)2(CH2)3N(CH3)2 [Pc 1] | – | – | – | – | – | 0% | 27% | 39% | 46% | 49% | – | – | – | low photostability |
| CC[Si](CC)(CC)O[Si]1(O[Si](CC)(CC)CC)n2c3c4ccccc4c2N=C2N=C(N=c4c5ccccc5c(n41)=NC1=NC(=N3)c3ccccc31)c1ccccc12 [Pc 281, SiPc(OSiEt3)2] | 0% | 5% | 9% | 13% | 17% | – | – | – | – | – | – | – | – | – |
| C=CCCCC[Si](C)(C)O[Si]1(O[Si](C)(C)CCCCC=C)n2c3c4ccccc4c2N=C2N=C(N=c4c5ccccc5c(n41)=NC1=NC(=N3)c3ccccc31)c1ccccc12 [Pc 270, SiPc[OSi(CH3)2(CH2)4CH═CH2]2] | – | – | – | – | – | 0% | 1% | 2% | 2% | 3% | – | – | – | – |
| CN(C)CCC[Si](C)(C)O[Si]1(O[Si](C)(C)CCCN(C)C)n2c3c4ccccc4c2N=C2N=C(N=c4c5ccccc5c(n41)=NC1=NC(=N3)c3ccccc31)c1ccccc12 [Pc 12, SiPc[OSi(CH3)2(CH2)3N(CH3)2]2] | – | – | – | – | – | 0% | 19% and 18% | 20% and 19% | 21% | 21% | – | – | – | – |
| CCCCCC[Si](CCCCCC)(CCCCCC)O[Si]1(O[Si](CCCCCC)(CCCCCC)CCCCCC)n2c3c4ccccc4c2N=C2N=C(N=c4c5ccccc5c(n41)=NC1=NC(=N3)c3ccccc31)c1ccccc12 [Pc 162, SiPc(OSiHx3)2] | 0% | 9% | 14% | 20% | 26% | – | – | – | – | – | – | – | – | – |
| C=CC[Si](C)(C)O[Si]1(O[Si](C)(C)CC=C)n2c3c4ccccc4c2N=C2N=C(N=c4c5ccccc5c(n41)=NC1=NC(=N3)c3ccccc31)c1ccccc12 [Pc 271, SiPc[OSi(CH3)2CH2CH═CH2]2] | – | – | – | – | – | 0% | 6% | 10% | 14% | 16% | – | – | – | – |
